What was measured:
Format in all cases: biochemical
Settings in all cases: luminometer
IKKε = biological target: T1, IKKε (Homo sapiens, UniProt Q14164); assay: IKKε inhibition, ADP-Glo Kinase Assay
T1 construct: purchased Invitrogen PR8031B
T1 sequence (Q14164 1-716): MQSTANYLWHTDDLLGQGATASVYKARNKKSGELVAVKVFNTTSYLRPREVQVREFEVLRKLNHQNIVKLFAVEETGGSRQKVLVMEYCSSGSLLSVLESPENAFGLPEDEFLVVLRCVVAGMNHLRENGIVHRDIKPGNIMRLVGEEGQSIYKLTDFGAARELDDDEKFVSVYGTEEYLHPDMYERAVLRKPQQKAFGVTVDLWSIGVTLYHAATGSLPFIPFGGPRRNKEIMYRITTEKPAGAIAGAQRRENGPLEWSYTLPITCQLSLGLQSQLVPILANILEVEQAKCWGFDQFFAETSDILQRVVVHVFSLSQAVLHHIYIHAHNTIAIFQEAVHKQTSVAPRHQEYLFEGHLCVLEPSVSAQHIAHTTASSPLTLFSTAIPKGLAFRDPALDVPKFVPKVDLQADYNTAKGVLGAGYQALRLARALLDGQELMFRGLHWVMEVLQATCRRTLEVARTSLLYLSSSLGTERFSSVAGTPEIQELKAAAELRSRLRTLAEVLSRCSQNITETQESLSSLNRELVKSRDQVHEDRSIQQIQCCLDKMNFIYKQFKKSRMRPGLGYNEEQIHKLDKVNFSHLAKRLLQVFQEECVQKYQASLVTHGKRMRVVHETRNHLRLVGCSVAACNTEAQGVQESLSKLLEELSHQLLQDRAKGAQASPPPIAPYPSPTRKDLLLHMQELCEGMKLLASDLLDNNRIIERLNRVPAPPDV
How it was run: (§1)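 ADP-Glo luminescence reported ADP produced by each kinase, following the kit protocol. Reactions used commercial kinase enzyme systems in buffer of 40 mM Tris (pH 7.5), 20 mM MgCl2 and 0.1 mg/mL BSA.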

TBK1 = biological target: T2, TBK1 (Homo sapiens, UniProt Q9UHD2); assay: TBK1 inhibition, ADP-Glo Kinase Assay
T2 construct: purchased Promega V3991
T2 sequence (Q9UHD2 1-729): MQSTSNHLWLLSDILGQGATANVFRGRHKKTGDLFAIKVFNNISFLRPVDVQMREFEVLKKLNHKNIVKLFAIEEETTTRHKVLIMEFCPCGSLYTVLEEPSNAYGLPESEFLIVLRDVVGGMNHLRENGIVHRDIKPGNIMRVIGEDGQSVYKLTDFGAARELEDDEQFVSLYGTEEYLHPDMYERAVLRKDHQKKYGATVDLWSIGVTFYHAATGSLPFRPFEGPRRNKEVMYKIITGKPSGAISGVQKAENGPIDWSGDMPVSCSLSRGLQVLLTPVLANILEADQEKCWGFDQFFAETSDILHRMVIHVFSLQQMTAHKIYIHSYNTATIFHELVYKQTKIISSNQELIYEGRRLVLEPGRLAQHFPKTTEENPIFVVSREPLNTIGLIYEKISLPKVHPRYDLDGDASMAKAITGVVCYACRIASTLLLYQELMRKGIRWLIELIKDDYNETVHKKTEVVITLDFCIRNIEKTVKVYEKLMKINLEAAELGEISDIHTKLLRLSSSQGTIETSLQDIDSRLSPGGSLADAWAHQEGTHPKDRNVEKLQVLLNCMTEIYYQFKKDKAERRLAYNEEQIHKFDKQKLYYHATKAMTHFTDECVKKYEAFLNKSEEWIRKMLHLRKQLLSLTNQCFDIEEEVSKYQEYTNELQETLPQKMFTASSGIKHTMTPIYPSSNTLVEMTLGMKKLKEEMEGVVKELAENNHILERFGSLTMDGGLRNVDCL
How it was run: as §1

TNIK = biological target: T3, TNIK (Homo sapiens, UniProt Q9UKE5); assay: TNIK inhibition, ADP-Glo Kinase Assay
T3 construct: purchased Promega V4158
Experimental: Inhibition activities on TNIK, IKKε and TBK1 were evaluated using the compounds of Examples 1 to 254.
The inhibition activities on TNIK, IKKε and TBK1 were measured by a luminometer, TNIK/IKKε/TBK1 Kinase Enzyme System (Promega, Ca# V4158; Invitrogen, PR8031B, Promega, Ca# V3991) and ADP-Glo Kinase Assay using ADP-Glo™ Kinase Analysis Kit (Promega, Ca# V9101) and a kinase reaction buffer [40 mM Tris(pH 7.5), 20 mM MgCl2, 0.1 mg/mL BSA] in accordance with the manufacturer's protocol.

T3 sequence (Q9UKE5 1-367 limits assumed): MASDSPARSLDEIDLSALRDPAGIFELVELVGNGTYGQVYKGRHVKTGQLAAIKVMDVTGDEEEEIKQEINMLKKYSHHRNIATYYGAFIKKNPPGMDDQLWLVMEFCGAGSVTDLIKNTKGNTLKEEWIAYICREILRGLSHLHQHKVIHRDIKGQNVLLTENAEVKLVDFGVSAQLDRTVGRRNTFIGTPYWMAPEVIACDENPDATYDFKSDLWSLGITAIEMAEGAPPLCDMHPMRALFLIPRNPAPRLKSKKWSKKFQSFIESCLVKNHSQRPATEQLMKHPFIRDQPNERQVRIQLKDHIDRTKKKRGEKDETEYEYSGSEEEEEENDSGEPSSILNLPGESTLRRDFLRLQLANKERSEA

IC50 (IKKε) [µM] | IC50 (TBK1) [µM] | IC50 (TNIK) [µM] | TNIK (μM), inhibition activity (TNIK) | SMILES
0.13 | 0.019 | – | – | CN1CCN(c2ccc(C(=O)Nc3n[nH]c4ccc(C(=O)NCc5ccc(F)cc5)cc34)cc2)CC1 [Example 189, N-(4-Fluorobenzyl)-3-(4-(4-methylpiperazin-1-yl)benzamido)-1H-indazole-5-carboxamide]
1.23 | 0.34 | – | – | CC[C@H](NC(=O)c1ccc2[nH]nc(NC(=O)c3ccc(N4CCN(C)CC4)cc3)c2c1)c1ccccc1 [Example 190, (S)-3-(4-(4-Methylpiperazin-1-yl)benzamido)-N-(1-phenylpropyl)-1H-indazole-5-carboxamide]
0.014 | 0.0013 | – | – | CC[C@@H](NC(=O)c1ccc2[nH]nc(NC(=O)c3ccc(N4CCN(C)CC4)cc3)c2c1)c1ccccc1 [Example 191, (R)-3-(4-(4-Methylpiperazin-1-yl)benzamido)-N-(1-phenylpropyl)-1H-indazole-5-carboxamide]
4.47 | 0.8 | – | – | CCC[C@H](NC(=O)c1ccc2[nH]nc(NC(=O)c3ccc(N4CCN(C)CC4)cc3)c2c1)c1ccccc1 [Example 193, (S)-3-(4-(4-Methylpiperazin-1-yl)benzamido)-N-(1-phenylbutyl)-1H-indazole-5-carboxamide]
0.038 | 0.0075 | – | – | CCC[C@@H](NC(=O)c1ccc2[nH]nc(NC(=O)c3ccc(N4CCN(C)CC4)cc3)c2c1)c1ccccc1 [Example 194, (R)-3-(4-(4-Methylpiperazin-1-yl)benzamido)-N-(1-phenylbutyl)-1H-indazole-5-carboxamide]
0.05 | 0.0072 | – | – | CN1CCN(c2ccc(C(=O)Nc3n[nH]c4ccc(C(=O)NCc5cccc(F)c5)cc34)cc2)CC1 [Example 195, N-(3-Fluorobenzyl)-3-(4-(4-methylpiperazin-1-yl)benzamido)-1H-indazole-5-carboxamide]
0.032 | 0.007 | – | – | CN1CCN(c2ccc(C(=O)Nc3n[nH]c4ccc(C(=O)NCc5ccccc5F)cc34)cc2)CC1 [Example 196, N-(2-Fluorobenzyl)-3-(4-(4-methylpiperazin-1-yl)benzamido)-1H-indazole-5-carboxamide]
0.042 | 0.027 | – | – | CN1CCN(c2ccc(C(=O)Nc3n[nH]c4ccc(C(=O)NC(c5ccccc5)C5CC5)cc34)cc2)CC1 (stereo not shown) [Example 197, N-(Cyclopropyl(phenyl)methyl)-3-(4-(4-methylpiperazin-1-yl)benzamido)-1H-indazole-5-carboxamide]
1.28 | 0.15 | – | – | CC(C)(C)OC(=O)N1CC=C(c2ccc(C(=O)Nc3n[nH]c4ccc(C(=O)NCc5cccs5)cc34)cc2)CC1 [Example 198, tert-Butyl 4-(4-((5-((thiophen-2-ylmethyl)carbamoyl)-1H-indazol-3-yl)carbamoyl)phenyl)-3,6-tetrahydropyridine-1(2H)-carboxylate]
0.14 | 0.0097 | – | – | O=C(NCc1cccs1)c1ccc2[nH]nc(NC(=O)c3ccc(C4=CCNCC4)cc3)c2c1 [Example 199, 3-(4-(1,2,3,6-Tetrahydropyridin-4-yl)benzamido)-N-(thiophen-2-ylmethyl)-1H-indazole-5-carboxamide]
0.038 | 0.003 | – | – | O=C(NCc1cccs1)c1ccc2[nH]nc(NC(=O)c3ccc(OCCN4CCOCC4)cc3)c2c1 [Example 201, 3-(4-(2-Morpholinoethoxy)benzamido)-N-(thiophen-2-ylmethyl)-1H-indazole-5-carboxamide]
0.015 | 0.0029 | – | – | CCC(NC(=O)c1ccc2[nH]nc(NC(=O)c3ccc(N4CCN(C(C)=O)CC4)cc3)c2c1)c1ccsc1 (stereo not shown) [Example 209, 3-(4-(4-Acetylpiperazin-1-yl)benzamido)-N-(1-(thiophen-3-yl)propyl)-1H-indazole-5-carboxamide]
0.079 | 0.0013 | – | – | CC(=O)Nc1ccc(C(=O)Nc2n[nH]c3ccc(C(=O)NCc4cccs4)cc23)cc1 [Example 211, 3-(4-Acetamidobenzamido)-N-(thiophen-2-ylmethyl)-1H-indazole-5-carboxamide]
0.36 | 0.078 | – | – | O=C(NCc1cccs1)c1ccc2[nH]nc(NC(=O)c3ccc(-n4ccnc4)cc3)c2c1 [Example 212, 3-(4-(1H-Imidazol-1-yl)benzamido)-N-(thiophen-2-ylmethyl)-1H-indazole-5-carboxamide]
0.069 | 0.0044 | – | – | CN1CCC(Nc2ccc(C(=O)Nc3n[nH]c4ccc(C(=O)NCc5cccs5)cc34)cc2)CC1 [Example 213]
0.59 | 0.27 | – | – | CC(NC(=O)c1ccc2[nH]nc(NC(=O)c3ccc(F)cc3)c2c1)c1ccncc1 (stereo not shown) [Example 214, 3-(4-Fluorobenzamido)-N-(1-(pyridin-4-yl)ethyl)-1H-indazole-5-carboxamide]
0.32 | 0.021 | – | – | CC(C)(NC(=O)c1ccc2[nH]nc(NC(=O)c3ccc(F)cc3)c2c1)c1cccs1 [Example 215, 3-(4-Fluorobenzamido)-N-(2-(thiophen-2-yl)propan-2-yl)-1H-indazole-5-carboxamide]
5.25 | 3.7 | – | – | O=C(Nc1n[nH]c2ccc(C(=O)NC3(c4ccccn4)CC3)cc12)c1ccc(F)cc1 [Example 216, 3-(4-Fluorobenzamido)-N-(1-(pyridin-2-yl)cyclopropyl)-1H-indazole-5-carboxamide]
0.65 | 0.52 | – | – | O=C(Nc1n[nH]c2ccc(C(=O)NC3(c4cccnc4)CC3)cc12)c1ccc(F)cc1 [Example 217, 3-(4-Fluorobenzamido)-N-(1-(pyridin-3-yl)cyclopropyl)-1H-indazole-5-carboxamide]
– | – | 0.048 | – | Cc1cnc(-c2cc3[nH]nc(NC(=O)c4ccc(N5CCOCC5)cc4)c3s2)o1 [Example 218, N-(5-(5-methyloxazol-2-yl)-1H-thieno[3,2-c]pyrazol-3-yl)-4-morpholinobenzamide]
– | – | – | insoluble | COC(=O)c1cc2[nH]nc(-c3ccc(N(C)C)cc3)c2s1 [Example 234, methyl 3-(4-(dimethylamino)phenyl)-1H-thieno[3,2-c]pyrazole-5-carboxylate]
– | – | 1.79 | – | CCNC(=O)c1cc2[nH]nc(-c3ccc(N(C)C)cc3)c2s1 [Example 237, 3-(4-(dimethylamino)phenyl)-N-ethyl-1H-thieno[3,2-c]pyrazole-5-carboxamide]
– | – | 3.47 | – | CCNC(=O)c1cc2[nH]nc(-c3ccccc3)c2s1 [Example 238, N-ethyl-3-phenyl-1H-thieno[3,2-c]pyrazole-5-carboxamide]
– | – | 1.01 | – | CCc1cnc(-c2cc3[nH]nc(-c4ccc(N5CCOCC5)cc4)c3s2)o1 [Example 244, 4-(4-(5-(5-ethyloxazol-2-yl)-1H-thieno[3,2-c]pyrazol-3-yl)phenyl)morpholine]
– | – | 0.16 | – | COC(=O)c1cc2[nH]nc(-c3ccc(NC(C)=O)cc3)c2s1 [Example 245, methyl 3-(4-acetamidophenyl)-1H-thieno[3,2-c]pyrazole-5-carboxylate]
– | – | 0.5 | – | Cc1cnc(-c2cc3[nH]nc(-c4ccc(F)cc4)c3s2)o1 [Example 246, 2-(3-(4-fluorophenyl)-1H-thieno[3,2-c]pyrazol-5-yl)-5-methyloxazole]
– | – | > 20 | – | Cc1cnc(-c2cc3[nH]nc(-c4ccc(F)cc4)c3s2)s1 [Example 247, 3-(4-fluorophenyl)-5-(5-methylthiazol-2-yl)-1H-thieno[3,2-c]pyrazole]

— patent publication US10294207B2, “Pyrazole derivatives as TNIK, IKKϵ and TBK1 inhibitor and pharmaceutical composition comprising same” (GREEN CROSS CORPORATION, priority 2015, dated 2019)
